Target: T1, human PAD4 (Homo sapiens, UniProt Q9UM07)
T1 construct: human PAD4 (NM_012387), A2-P663, was PCR amplified; His-SUMO (N, cleaved yes); made in house; host or cells: E. coli BL21(DE3)
Assay: In vitro PAD4 BAEE biochemical assay
Conditions: BAEE substrate 3 mM, 5 nM PAD4, 2 mM calcium chloride; geometric mean of multiple experiments
Method in brief: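 PAD4 5 nM, CaCl2 2 mM, BAEE 3 mM final; 50 mM MOPS pH 7.6, 50 mM NaCl, 0.05% Tween-20, 2 mM DTT. Cpd + enzyme 30 min 25 °C; substrate 2 h 25 °C; EDTA stop; OPA detection 1 h. IC50 4-parameter fit.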

T1 sequence (Q9UM07 2-663): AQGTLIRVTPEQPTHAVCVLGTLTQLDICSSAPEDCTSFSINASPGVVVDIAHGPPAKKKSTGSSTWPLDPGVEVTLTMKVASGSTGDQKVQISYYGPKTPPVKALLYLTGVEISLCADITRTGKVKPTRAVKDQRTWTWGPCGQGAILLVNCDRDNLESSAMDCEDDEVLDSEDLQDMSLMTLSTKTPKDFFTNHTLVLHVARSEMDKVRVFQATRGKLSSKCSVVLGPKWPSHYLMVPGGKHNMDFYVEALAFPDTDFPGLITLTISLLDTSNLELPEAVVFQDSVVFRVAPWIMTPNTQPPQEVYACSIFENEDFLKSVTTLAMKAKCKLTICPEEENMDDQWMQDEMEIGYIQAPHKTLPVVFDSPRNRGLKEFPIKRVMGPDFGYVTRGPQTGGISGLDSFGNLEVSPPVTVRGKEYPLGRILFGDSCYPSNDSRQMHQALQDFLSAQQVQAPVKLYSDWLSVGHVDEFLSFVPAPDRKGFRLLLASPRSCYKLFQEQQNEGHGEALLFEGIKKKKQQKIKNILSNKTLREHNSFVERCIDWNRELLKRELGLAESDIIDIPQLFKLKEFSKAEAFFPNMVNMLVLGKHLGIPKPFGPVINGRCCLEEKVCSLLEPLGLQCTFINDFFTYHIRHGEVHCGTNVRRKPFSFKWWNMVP

SMILES	IC50 [nM]
COc1cc(C(=O)N2CCC[C@@H](N)C2)cc2nc(-c3cc4ccc5nc4n3CCCCCCCC(=O)N(C)C5)n(C)c12 [Example 234, 17-[5-[(3˜{R})-3-aminopiperidine-1-carbonyl]-7-methoxy-1-methyl-benzimidazol-2-yl]-10-methyl-1,10,19-triazatricyclo[10.5.2.0^{15,18}]nonadeca-12(19),13,15(18),16-tetraen-9-one]	622
CCc1c(-c2cc3ccc4nc3n2CCCCCCC(C)(C)C(=O)N[C@@H]4C)nn2cc(C(=O)N3CCC[C@@H](N)C3)ccc12 [Example 237, (11~{R})-17-[6-[(3~{R})-3-aminopiperidine-1-carbonyl]-3-ethyl-pyrazolo[1,5-a]pyridin-2-yl]-8,8,11-trimethyl-1,10,19-triazatricyclo[10.5.2.0^{15,18}]nonadeca-12(19),13,15(18),16-tetraen-9-one]	62
COc1cc(C(=O)N2CCC[C@@H](N)C2)cc2nc(-c3cc4ccc5nc4n3CCCCCCCC(=O)NC5C(F)F)n(C)c12 (stereo partly shown) [Example 238, 17-[5-[(3~{R})-3-aminopiperidine-1-carbonyl]-7-methoxy-1-methyl-benzimidazol-2-yl]-11-(difluoromethyl)-1,10,19-triazatricyclo[10.5.2.0^{15,18}]nonadeca-12(19),13,15(18),16-tetraen-9-one]	87
COc1cc(C(=O)N2CC[C@@H](OC)[C@@H](N)C2)cc2nc(-c3cc4ccc5nc4n3Cc3ccccc3C/C=C/CC(=O)N[C@@H]5C)n(C)c12 [Example 239, (10~{E},15~{R})-21-[5-[(3~{S},4~{R})-3-amino-4-methoxy-piperidine-1-carbonyl]-7-methoxy-1-methyl-benzimidazol-2-yl]-15-methyl-1,14,23-triazatetracyclo[14.5.2.0^{3,8}.0^{19,22}] tricosa-3(8),4,6,10,16,18,20,22-octaen-13-one]	583
COc1cc(C(=O)N2CC[C@@H](OC)[C@@H](N)C2)cc2nc(-c3cc4ccc5nc4n3CCCCCc3nccnc3C(=O)N[C@@H]5C)n(C)c12 [Example 240, (2~{R})-17-[5-[(3~{S),4~{R})-3-amino-4-methoxy-piperidine-1-carbonyl]-7-methoxy-1-methyl-benzimidazol-2-yl]-2-methyl-3,6,9,16,22-pentazatetracyclo[14.5.2.0^{5,10}.0^{19, 23}]tricosa-1(21),5(10),6,8,17,19,22-heptaen-4-one]	137
COc1cc(C(=O)N[C@H]2CNCC[C@@H]2F)cc2nc(-c3cc4ccc5nc4n3CCCCCc3nccnc3C(=O)N[C@@H]5C)n(C)c12 [Example 241, ~{N}-[(3~{S},4~{S})-4-fluoro-3-piperidyl]-7-methoxy-1-methyl-2-[(2~{R})-2-methyl-4-oxo-3,6,9,16,22-pentazatetracyclo[14.5.2.0^{5,10}.0^{19, 23}]tricosa-1(21),5(10),6,8,17,19,22-heptaen-17-yl]benzimidazole-5-carboxamide]	82
C[C@H]1NC(=O)[C@@H]2C[C@H]2CCCCCn2c(-c3nc4cc(C(=O)N[C@H]5CNCC[C@@H]5F)c(F)cc4n3C)cc3ccc1nc32 [Example 242, 6-fluoro-~{N}-[(3~{S},4~{S})-4-fluoro-3-piperidyl]-1-methyl-2-[(2~{R},5~{R},7~{R})-2-methyl-4-oxo-3,13,19-triazatetracyclo[11.5.2.0^{5,7}.0^{16,20}]icosa-1(19),14,16(20),17-tetraen-14-yl]benzimidazole-5-carboxamide]	31
C[C@H]1NC(=O)c2nccnc2CCCCCn2c(-c3nc4cc(C(=O)N[C@H]5CNCC[C@@H]5F)c(F)cc4n3C3CC3)cc3ccc1nc32 [Example 243, 1-cyclopropyl-6-fluoro-~{N}-[(3~{S},4~{S})-4-fluoro-3-piperidyl]-2-[(2~{R})-2-methyl-4-oxo-3,6,9,16,22-pentazatetracyclo[14.5.2.0^{5,10}.0^{19, 23}]tricosa-1(21),5(10),6,8,17,19,22-heptaen-17-yl]benzimidazole-5-carboxamide]	68
COc1cc(C(=O)N[C@H]2CNCC[C@@H]2O)cc2nc(-c3cc4ccc5nc4n3CCCCCCC(C)(C)C(=O)N[C@@H]5C)n(C)c12 [Example 244, ~{N}-[(3~{S},4~{S})-4-hydroxy-3-piperidyl]-7-methoxy-1-methyl-2-[(11~{R})-8,8,11-trimethyl-9-oxo-1,10,19-triazatricyclo[10.5.2.0^{15,18}]nonadeca-12(19),13,15(18),16-tetraen-17-yl]benzimidazole-5-carboxamide]	2580
COc1cc(C(=O)N2[C@H]3CC[C@@H]2[C@H](N)C3)cc2nc(-c3cc4ccc5nc4n3CCCCCOCC(=O)N[C@@H]5C)c(C)n12 [Example 247, (11~{R})-17-[7-[(1~{R},2~{R},4~{S})-2-amino-7-azabicyclo[2.2.1]heptane-7-carbonyl]-5-methoxy-3-methyl-imidazo[1,2-a]pyridin-2-yl]-11-methyl-7-oxa-1,10,19-triazatricyclo[10.5.2.0^{15,18}]nonadeca-12(19),13,15(18),16-tetraen-9-one]	18
COc1cc(C(=O)N2[C@H]3CC[C@@H]2[C@H](N)C3)cc2nc(-c3cc4ccc5nc4n3CCCCCCOCC(=O)N[C@@H]5C)c(C)n12 [Example 248, (12~{R})-18-[7-[(1~{R},2~{R},4~{S})-2-amino-7-azabicyclo[2.2.1]heptane-7-carbonyl]-5-methoxy-3-methyl-imidazo[1,2-a]pyridin-2-yl]-12-methyl-8-oxa-1,11,20-triazatricyclo[11.5.2.0^{16,19}]icosa-13(20),14,16(19),17-tetraen-10-one]	44
C[C@H]1NC(=O)CCCCCCCn2c(-c3nc4cc(C(=O)N5[C@H]6CC[C@@H]5[C@H](N)C6)ccn4c3C3CC3)cc3ccc1nc32 [Example 249, (11~{R})-17-[7-[(1~{R},2~{R},4~{S})-2-amino-7-azabicyclo[2.2.1]heptane-7-carbonyl]-3-cyclopropyl-imidazo[1,2-a]pyridin-2-yl]-11-methyl-1,10,19-triazatricyclo[10.5.2.0^{15,18}]nonadeca-12(19),13,15(18),16-tetraen-9-one]	51
COc1cc(C(=O)N2[C@H]3CC[C@@H]2[C@H](N)C3)cc2nc(-c3cc4ccc5nc4n3CCCCCCCC(=O)N[C@@H]5C)n(C3CC3)c12 [Example 250, (11~{R})-17-[5-[(1~{R},2~{R},4~{S})-2-amino-7-azabicyclo[2.2.1]heptane-7-carbonyl]-1-cyclopropyl-7-methoxy-benzimidazol-2-yl]-11-methyl-1,10,19-triazatricyclo[10.5.2.0^{15,18}]nonadeca-12(19),13,15(18),16-tetraen-9-one]	44
COc1cc(C(=O)N2[C@H]3CC[C@@H]2[C@H](N)C3)cc2nc(-c3cc4ccc5nc4n3CCCCCCCC(=O)NC5(C)C)n(C)c12 [Example 251, 17-[5-[(1~{R},2~{R},4~{S})-2-amino-7-azabicyclo[2.2.1]heptane-7-carbonyl]-7-methoxy-1-methyl-benzimidazol-2-yl]-11,11-dimethyl-1,10,19-triazatricyclo[10.5.2.0^{15,18}]nonadeca-12(19),13,15(18),16-tetraen-9-one]	74
CCc1c(-c2cc3ccc4nc3n2CCCCCCCC(=O)N[C@@H]4C)nn2cc(C(=O)N3[C@H]4CC[C@@H]3[C@H](N)C4)ccc12 [Example 252, 17-[5-[(1˜{R},2˜{R},4˜{S})-2-amino-7-azabicyclo[2.2.1]heptane-7-carbonyl]-3-ethylpyrazolo[1,5-a]pyridin-2-yl]-11-methyl-1,10,19-triazatricyclo[10.5.2.0^{15,18}]nonadeca-12(19),13,15(18),16-tetraen-9-one]	45
COc1cc(C(=O)N2[C@H]3CC[C@@H]2[C@H](N)C3)cc2nc(-c3cc4ccc5nc4n3CCCCCCC(C)(C)C(=O)N[C@@H]5C)n(C3CC3)c12 [Example 253, (11~{R})-17-[5-[(1~{R},2~{R},4~{S})-2-amino-7-azabicyclo[2.2.1]heptane-7-carbonyl]-1-cyclopropyl-7-methoxy-benzimidazol-2-yl]-8,8,11-trimethyl-1,10,19-triazatricyclo[10.5.2.0^{15,18}]nonadeca-12(19),13,15(18),16-tetraen-9-one]	103
COc1cc(C(=O)N2[C@H]3CC[C@@H]2[C@H](N)C3)cc2nc(-c3cc4ccc5nc4n3CCCCCCC(=O)N[C@@H]5C)n(C3CC3)c12 [Example 254, (10~{R})-16-[5-[(1~{R},2~{R},4~{S})-2-amino-7-azabicyclo[2.2.1]heptane-7-carbonyl]-1-cyclopropyl-7-methoxy-benzimidazol-2-yl]-10-methyl-1,9,18-triazatricyclo[9.5.2.0^{14,17}]octadeca-11(18),12,14(17),15-tetraen-8-one]	32
COc1cc(C(=O)N2[C@H]3CC[C@@H]2[C@H](N)C3)cc2nc(-c3cc4ccc5nc4n3CCCCCCCC(=O)NC5)n(C)c12 [Example 255, 17-[5-[(1~{R},2~{R},4~{S})-2-amino-7-azabicyclo[2.2.1]heptane-7-carbonyl]-7-methoxy-1-methyl-benzimidazol-2-yl]-1,10,19-triazatricyclo[10.5.2.0^{15,18}]nonadeca-12(19),13,15(18),16-tetraen-9-one]	59
COc1cc(C(=O)N2[C@H]3CC[C@@H]2[C@H](N)C3)cc2nc(-c3cc4ccc5nc4n3CCCCCCCC(=O)N(C)C5)n(C)c12 [Example 256, 17-[5-[(1~{R},2~{R},4~{S})-2-amino-7-azabicyclo[2.2.1]heptane-7-carbonyl]-7-methoxy-1-methyl-benzimidazol-2-yl]-10-methyl-1,10,19-triazatricyclo[10.5.2.0^{15,18}]nonadeca-12(19),13,15(18),16-tetraen-9-one]	48

Source: patent US11976083B2, “Inhibitors of peptidylarginine deiminases” (Gilead Sciences, Inc., priority 2020, dated 2024)
